The assay concerns the target GST-tagged truncated human mutant G2019S LRRK2 (Homo sapiens (Human), UniProt Q5S007, G2019S). In words: LRRK2 Km ATP LanthaScreen Assay. The format is biochemical. The settings on record: 134 μM ATP (Km ATP); fluorescein-labeled LRRKtide substrate; mean IC50 values. Here is the method:
Unless otherwise noted, all LRRK2 IC50 data presented in tables refers to the LRRK2 Km ATP LanthaScreen™ Assay that is described in the Biological Assay section.
Biological Assay: LRRK2 Km ATP LanthaScreen™ Assay
The LRRK2 kinase activity reported herein as IC50 values was determined with LanthaScreen™ technology from Life Technologies Corporation (Carlsbad, Calif.) using GST-tagged truncated human mutant G2019S LRRK2 in the presence of the fluorescein-labeled peptide substrate LRRKtide, also from Life Technologies. The data presented for the Km ATP LanthaScreen™ Assay represents mean IC50 values based on several test results and may have reasonable deviations depending on the specific conditions and reagents used. Assays were performed in the presence of 134 μM ATP (Km ATP). Upon completion, the assay was stopped and phosphorylated substrate detected with a terbium (Tb)-labeled anti-pERM antibody (cat. no. PV4898). The compound dose response was prepared by diluting a 10 mM stock of compound to a maximum concentration of 9.99 μM in 100% dimethylsulfoxide followed by custom fold serial dilution in dimethylsulfoxide nine times. Twenty nanoliters of each dilution was spotted via a Labcyte Echo onto a 384-well black-sided plate (Corning 3575) followed by 15 μl of a 1.25 nM enzyme solution in 1× assay buffer (50 mM Tris pH 8.5, 10 mM MgCl2, 0.01% Brij-35, 1 mM EGTA, 2 mM dithiothreitol, 0.05 mM sodium orthovanadate) Following a 15-minute incubation at room temperature, the kinase reaction was started with the addition of 5 μl of 400 nM fluorescein-labeled LRRKtide peptide substrate and 134 μM ATP solution in 1× assay buffer. The reaction was allowed to progress at ambient temperature for 90 minutes. The reaction was then stopped by the addition of 20 μl of TR-FRET Dilution Buffer (Life Technologies, Carlsbad, Calif.) containing 2 nM Tb-labeled anti-phospho LRRKtide antibody and 10 mM EDTA (Life Technologies, Carlsbad, Calif.). After an incubation of 1 hour at room temperature, the plate was read on an EnVision multimode plate reader (Perkin Elmer, Waltham, Mass.) with an excitation wavelength of 337 nm (Laser) and a reading emission at both 520 and 495 nm. Compound IC50s were interpolated from nonlinear regression best fits of the log of the final compound concentration, plotted as a function of the 520/495-nm emission ratio using Activity base. Abase uses a 4 parameter (4P) logistic fit based on the Levenberg-Marquardt algorithm.
On the technique in general: In TR-FRET formats the signal depends on donor and acceptor labels being close together.
Sequence of GST-tagged truncated human mutant G2019S LRRK2 (Q5S007 970-2527 G2019S): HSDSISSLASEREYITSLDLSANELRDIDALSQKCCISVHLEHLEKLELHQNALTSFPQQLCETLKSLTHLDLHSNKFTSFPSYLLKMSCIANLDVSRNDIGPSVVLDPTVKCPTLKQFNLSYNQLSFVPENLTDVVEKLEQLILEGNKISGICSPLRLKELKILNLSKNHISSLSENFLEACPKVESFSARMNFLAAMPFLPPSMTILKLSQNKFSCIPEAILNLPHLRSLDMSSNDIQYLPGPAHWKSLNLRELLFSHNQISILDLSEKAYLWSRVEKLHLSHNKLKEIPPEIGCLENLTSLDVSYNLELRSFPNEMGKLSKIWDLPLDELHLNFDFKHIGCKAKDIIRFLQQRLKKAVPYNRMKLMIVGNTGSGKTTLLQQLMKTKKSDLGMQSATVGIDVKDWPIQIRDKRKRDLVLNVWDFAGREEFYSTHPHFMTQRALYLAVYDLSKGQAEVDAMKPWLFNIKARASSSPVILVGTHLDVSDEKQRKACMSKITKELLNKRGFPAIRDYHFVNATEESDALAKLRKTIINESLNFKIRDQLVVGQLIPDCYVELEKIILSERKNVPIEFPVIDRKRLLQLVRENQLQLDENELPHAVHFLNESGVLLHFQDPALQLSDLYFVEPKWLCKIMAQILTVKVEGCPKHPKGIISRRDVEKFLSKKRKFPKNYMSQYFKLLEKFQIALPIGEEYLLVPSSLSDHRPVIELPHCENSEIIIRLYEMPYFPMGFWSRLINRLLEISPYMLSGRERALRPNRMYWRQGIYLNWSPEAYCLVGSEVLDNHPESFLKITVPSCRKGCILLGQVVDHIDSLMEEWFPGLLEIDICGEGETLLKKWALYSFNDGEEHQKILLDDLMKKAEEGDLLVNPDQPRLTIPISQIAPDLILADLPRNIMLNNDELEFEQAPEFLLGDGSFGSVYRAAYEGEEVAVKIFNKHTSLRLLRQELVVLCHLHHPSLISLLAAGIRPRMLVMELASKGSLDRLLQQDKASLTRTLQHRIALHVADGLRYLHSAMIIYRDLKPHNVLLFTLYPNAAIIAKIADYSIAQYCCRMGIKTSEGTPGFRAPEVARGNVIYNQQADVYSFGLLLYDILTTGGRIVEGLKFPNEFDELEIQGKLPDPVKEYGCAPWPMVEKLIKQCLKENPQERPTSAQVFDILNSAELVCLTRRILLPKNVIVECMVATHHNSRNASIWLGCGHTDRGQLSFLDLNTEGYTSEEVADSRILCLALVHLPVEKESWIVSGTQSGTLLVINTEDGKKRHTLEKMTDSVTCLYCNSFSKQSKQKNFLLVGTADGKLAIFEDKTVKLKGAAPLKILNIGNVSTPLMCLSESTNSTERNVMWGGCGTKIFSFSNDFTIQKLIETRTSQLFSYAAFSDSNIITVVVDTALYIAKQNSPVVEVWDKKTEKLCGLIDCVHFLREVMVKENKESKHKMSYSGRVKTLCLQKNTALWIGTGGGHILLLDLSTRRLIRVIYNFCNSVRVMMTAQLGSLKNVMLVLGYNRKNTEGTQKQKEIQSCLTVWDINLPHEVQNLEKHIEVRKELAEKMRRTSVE
Usually IC50 stands for the midpoint of a concentration-inhibition curve. `N#CC1(c2ccc3cnn(-c4cc(N5CCC(C6COC6)CC5)ncn4)c3c2)CC2(CC2)C1` [Example 44, 5-(1-(6-(4-(oxetan-3-yl)piperidin-1-yl)pyrimidin-4-yl)-1H-indazol-6-yl)spiro[2.3]hexane-5-carbonitrile]: it took 5 nM to reach half-maximal inhibition (IC50).

The molecule `N#CC1(c2ccc3cnn(-c4cc(N5CCN6CCOC[C@@H]6C5)ncn4)c3c2)CC2(CC2)C1` [Example 45, (S)-5-(1-(6-(hexahydropyrazino[2,1-c][1,4]oxazin-8(1H)-yl)pyrimidin-4-yl)-1H-indazol-6-yl)spiro[2.3]hexane-5-carbonitrile] yielded an IC50 of 2 nM.

In turn, `N#CC1(c2ccc3cnn(-c4cc(N5CCN6CCOC[C@H]6C5)ncn4)c3c2)CC2(CC2)C1` [Example 46, (R)-5-(1-(6-(hexahydropyrazino[2,1-c][1,4]oxazin-8(1H)-yl)pyrimidin-4-yl)-1H-indazol-6-yl)spiro[2.3]hexane-5-carbonitrile] registered an IC50 of 7 nM.

Molecule `Cc1nc(N2CCN3CCOC[C@@H]3C2)cc(-n2ncc3ccc(C4(C#N)CC5(CC5)C4)cc32)n1` [Example 47, (S)-5-(1-(6-(hexahydropyrazino[2,1-c][1,4]oxazin-8(1H)-yl)-2-methylpyrimidin-4-yl)-1H-indazol-6-yl)spiro[2.3]hexane-5-carbonitrile] registered a 50% inhibitory concentration (IC50) of 3.2 nM.

In turn, `Cc1nc(N2CCN3CCOC[C@@H]3C2)cc(-n2ncc3cnc(C4(C#N)CC5(CC5)C4)cc32)n1` [Example 48, (S)-5-(1-(6-(hexahydropyrazino[2,1-c][1,4]oxazin-8(1H)-yl)-2-methylpyrimidin-4-yl)-1H-pyrazolo[4,3-c]pyridin-6-yl)spiro[2.3]hexane-5-carbonitrile] registered a concentration for half-maximal inhibition (IC50) of 20.2 nM.

`N#CC1(c2cc3c(cn2)cnn3-c2cc(N3CCN4CCOC[C@@H]4C3)ncn2)CC2(CC2)C1` [Example 49, (S)-5-(1-(6-(hexahydropyrazino[2,1-c][1,4]oxazin-8(1H)-yl)pyrimidin-4-yl)-1H-pyrazolo[4,3-c]pyridin-6-yl)spiro[2.3]hexane-5-carbonitrile] registered an IC50 of 8.8 nM.
